From BindingDB's records for doi:10.1021/jm051273d (University of North Carolina At Chapel Hill, 2006)

How the values were obtained:
Test in all cases: PDE4 Activity Assay
Conditions in all cases: pH 7.5; 22 °C
[1] = target: cAMP-specific 3',5'-cyclic phosphodiesterase 4A (Homo sapiens, UniProt P27815)
Experimental: (§1) PDE4 catalytic activity was monitored by measuring the hydrolysis of [3H]-cAMP to [3H]-AMP using PDE-SPA kit (Amersham International). [3H]-AMP was captured by the SPA beads, and quantified on a Wallac-Microbeta scintillation counter. A linear reaction progress curve (30 min) and a linear enzyme concentration response (0 to 500 pM) were observed. The IC50 value was calculated from an 11-point dose-response curve performed in duplicate using a 4-parameter least-squares nonlinear regression fit.

[2] = target: cAMP-specific 3',5'-cyclic phosphodiesterase 4B (Homo sapiens, UniProt Q07343)
cAMP-specific 3',5'-cyclic phosphodiesterase 4B, sequence (Q07343 whole entry): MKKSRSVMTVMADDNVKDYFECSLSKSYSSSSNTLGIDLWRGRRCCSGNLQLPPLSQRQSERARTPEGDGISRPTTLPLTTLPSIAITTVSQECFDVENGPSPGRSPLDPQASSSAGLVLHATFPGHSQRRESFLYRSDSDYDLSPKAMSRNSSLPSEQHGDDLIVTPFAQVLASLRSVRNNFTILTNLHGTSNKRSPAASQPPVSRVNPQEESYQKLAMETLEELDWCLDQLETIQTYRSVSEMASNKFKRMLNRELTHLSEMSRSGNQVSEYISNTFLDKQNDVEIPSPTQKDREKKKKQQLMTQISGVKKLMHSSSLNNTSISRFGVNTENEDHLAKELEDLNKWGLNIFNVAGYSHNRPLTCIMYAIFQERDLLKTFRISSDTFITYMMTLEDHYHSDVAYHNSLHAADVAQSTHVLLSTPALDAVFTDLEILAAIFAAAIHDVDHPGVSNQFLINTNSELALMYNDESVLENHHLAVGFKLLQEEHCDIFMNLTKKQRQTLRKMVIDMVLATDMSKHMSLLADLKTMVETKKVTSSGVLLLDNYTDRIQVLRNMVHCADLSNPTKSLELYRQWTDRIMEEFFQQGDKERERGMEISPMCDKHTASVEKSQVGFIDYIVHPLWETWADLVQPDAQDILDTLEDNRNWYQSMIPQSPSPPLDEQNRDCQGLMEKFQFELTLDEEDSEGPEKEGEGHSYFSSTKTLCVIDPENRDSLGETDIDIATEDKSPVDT
Experimental: as §1

[3] = target: cAMP-specific 3',5'-cyclic phosphodiesterase 4C (Homo sapiens, UniProt Q08493)
cAMP-specific 3',5'-cyclic phosphodiesterase 4C, sequence (Q08493 whole entry): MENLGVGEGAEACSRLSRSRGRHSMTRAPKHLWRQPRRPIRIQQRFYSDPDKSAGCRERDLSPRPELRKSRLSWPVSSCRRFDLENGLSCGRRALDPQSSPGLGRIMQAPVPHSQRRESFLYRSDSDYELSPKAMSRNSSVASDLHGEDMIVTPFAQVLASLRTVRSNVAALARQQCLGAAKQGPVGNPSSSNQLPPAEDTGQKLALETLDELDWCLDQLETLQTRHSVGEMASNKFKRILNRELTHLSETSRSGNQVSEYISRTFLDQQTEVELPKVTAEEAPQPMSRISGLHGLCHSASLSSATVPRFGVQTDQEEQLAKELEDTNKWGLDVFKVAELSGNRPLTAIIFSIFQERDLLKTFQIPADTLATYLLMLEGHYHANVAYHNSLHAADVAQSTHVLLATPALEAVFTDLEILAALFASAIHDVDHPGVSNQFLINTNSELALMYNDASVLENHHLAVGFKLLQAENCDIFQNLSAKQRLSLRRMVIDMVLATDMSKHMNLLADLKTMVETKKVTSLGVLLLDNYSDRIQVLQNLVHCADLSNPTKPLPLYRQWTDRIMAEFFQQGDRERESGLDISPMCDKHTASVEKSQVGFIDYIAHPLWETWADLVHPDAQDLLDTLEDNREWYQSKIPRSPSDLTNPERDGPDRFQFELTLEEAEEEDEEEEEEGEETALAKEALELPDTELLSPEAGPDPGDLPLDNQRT
Experimental: as §1

[4] = target: cAMP-specific 3',5'-cyclic phosphodiesterase 4D (Homo sapiens, UniProt Q08499)
cAMP-specific 3',5'-cyclic phosphodiesterase 4D, sequence (Q08499 whole entry): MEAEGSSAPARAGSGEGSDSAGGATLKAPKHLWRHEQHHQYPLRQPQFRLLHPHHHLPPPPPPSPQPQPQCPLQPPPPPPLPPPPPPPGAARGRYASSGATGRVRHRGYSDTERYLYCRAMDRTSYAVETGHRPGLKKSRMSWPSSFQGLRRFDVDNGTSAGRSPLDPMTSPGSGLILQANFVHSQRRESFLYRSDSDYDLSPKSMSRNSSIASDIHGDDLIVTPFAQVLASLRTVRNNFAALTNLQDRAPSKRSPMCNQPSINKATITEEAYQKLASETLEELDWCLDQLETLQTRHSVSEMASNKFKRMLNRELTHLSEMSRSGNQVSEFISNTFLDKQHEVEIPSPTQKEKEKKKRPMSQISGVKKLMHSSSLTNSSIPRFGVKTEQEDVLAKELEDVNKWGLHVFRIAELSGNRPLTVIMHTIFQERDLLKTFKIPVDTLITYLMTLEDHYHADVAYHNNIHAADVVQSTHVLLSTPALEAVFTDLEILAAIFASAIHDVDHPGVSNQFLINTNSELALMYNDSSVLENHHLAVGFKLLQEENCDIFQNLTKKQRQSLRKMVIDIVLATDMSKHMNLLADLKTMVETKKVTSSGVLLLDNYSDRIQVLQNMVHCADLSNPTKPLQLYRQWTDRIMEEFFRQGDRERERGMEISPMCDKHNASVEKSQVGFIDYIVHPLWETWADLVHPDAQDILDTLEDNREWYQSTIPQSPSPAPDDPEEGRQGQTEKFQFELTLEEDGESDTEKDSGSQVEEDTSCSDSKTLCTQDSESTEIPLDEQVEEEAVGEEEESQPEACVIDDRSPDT
Experimental: as §1

cAMP-specific 3',5'-cyclic phosphodiesterase 4A, sequence (P27815 whole entry): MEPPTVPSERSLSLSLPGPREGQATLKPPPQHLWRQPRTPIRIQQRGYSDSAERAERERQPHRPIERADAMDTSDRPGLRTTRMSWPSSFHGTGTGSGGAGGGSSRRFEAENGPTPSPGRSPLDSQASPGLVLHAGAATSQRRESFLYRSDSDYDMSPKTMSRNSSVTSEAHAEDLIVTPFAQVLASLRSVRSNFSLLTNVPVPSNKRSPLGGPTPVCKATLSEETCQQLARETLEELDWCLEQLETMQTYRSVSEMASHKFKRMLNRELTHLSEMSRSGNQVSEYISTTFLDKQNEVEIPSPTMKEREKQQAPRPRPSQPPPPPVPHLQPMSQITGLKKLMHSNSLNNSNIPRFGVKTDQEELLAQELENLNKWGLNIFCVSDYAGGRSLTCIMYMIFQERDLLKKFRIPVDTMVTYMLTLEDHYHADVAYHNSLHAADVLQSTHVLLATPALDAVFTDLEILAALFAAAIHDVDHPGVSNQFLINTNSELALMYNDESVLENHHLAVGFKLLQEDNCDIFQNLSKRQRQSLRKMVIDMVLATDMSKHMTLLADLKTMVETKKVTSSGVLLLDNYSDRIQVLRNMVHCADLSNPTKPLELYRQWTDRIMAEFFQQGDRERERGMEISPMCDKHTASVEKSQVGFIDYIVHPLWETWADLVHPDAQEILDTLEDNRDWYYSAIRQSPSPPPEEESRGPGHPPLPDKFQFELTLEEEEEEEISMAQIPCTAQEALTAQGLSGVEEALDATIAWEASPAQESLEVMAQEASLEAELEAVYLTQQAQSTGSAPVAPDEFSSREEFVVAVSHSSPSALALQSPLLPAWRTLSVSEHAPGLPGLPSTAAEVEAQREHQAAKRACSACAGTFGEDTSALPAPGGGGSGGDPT

| IC50 [1] | IC50 [2] | IC50 [3] | IC50 [4] | SMILES |
| --- | --- | --- | --- | --- |
| 0.4 nM | 0.4 nM | 1 nM | 0.4 nM | [O-][n+]1cccc(C[C@@H](c2ccc(OC(F)F)c(OC3CC3)c2)c2ncc(C(O)(C(F)(F)F)C(F)(F)F)s2)c1 [3-[(2S)-2-[3-cyclopropoxy-4-(difluoromethoxy)phenyl]-2-[5-(1,1,1,3,3,3-hexafluoro-2-hydroxypropan-2-yl)-1,3-thiazol-2-yl]ethyl]-1-oxidopyridin-1-ium] |
| 56 nM | 40 nM | 135 nM | – | [O-][n+]1cccc(C[C@H](c2ccc(OC(F)F)c(OC3CC3)c2)c2ncc(C(O)(C(F)(F)F)C(F)(F)F)s2)c1 [(R)-(-)-3-{2-[(3-cyclopropyloxy-4-difluromethoxy)phenyl]-2-[5-(2-(1-hydroxy-1-trifluoromethyl-2,2,2-trifluoro)ethyl)thiazolyl]ethyl}pyridine N-Oxide] |
